{"source": "patent US5965605A", "about": "“Inhibition of the binding human IgE to its receptor by tetracyclic compounds for the alleviation of IgE-mediated immune response” (Heska Corporation, priority 1997, dated 1999)", "key": {"IgE/FcεRI [1]": {"test_system": "IgE/FcεRI", "assay": "Systemic PCA model in rats", "type": "in vivo, Sprague Dawley rats", "description": "The compounds that have activity in the in situ PCA model were tested in the systemic PCA model. This model measures usefulness of a tetracyclic compound for blocking PCA in rats when the tetracyclic compound is administered systemically and the rats were sensitized with IgE at the skin. In this example, compound I was administrate first into the rats by intravenous (I.V.) injection, and immediately thereafter 0.03 μg/ml of anti-dinitrophenyl/IgE was injected into the skin of the shaved back of Sprague Dawley rats. After a sensitization period of 1 hr, the sensitized rats were challenged with an intravenous injection of 1 mg/ml of dinitrophenyl human albumin in 1% Evan's blue dye. Thirty minutes later, the rats were killed and skinned. As a positive control, PBS, lacking a tetracyclic compound, was administered by I.V. injection into Sprague Dawley rats, and the rats were treated in the same manner as the test rats. Percent inhibition of PCA obtained in this model is calculated by determining reduction of blue dye extracted from the tetracyclic compound treated rats compared to the positive control rats."}, "IgE/FcεRI [2]": {"test_system": "IgE/FcεRI", "assay": "in situ rat passive cutaneous anaphylaxis (PCA) model", "type": "in vivo, Sprague Dawley rats", "conditions": "for Percent inhibition of PCA reaction: injected into skin with 0.03 μg/ml IgE", "source_text": "The tetracyclic compounds that antagonized the IgE and FcεRIα interaction identified in the protein-based assay were further evaluated in the rat PCA model (Haak-Frendscho, et al., J. Immunol., 151:351-358, 1993). […] Mouse anti-dinitrophenyl IgE (Sigma ImmunoChemicals, St. Louis, Mo.) is a bifunctional antibody which binds to dinitrophenyl as well as FcεRI. Exposure of anti-dinitrophenyl-IgE to dinitrophenyl-albumin causes aggregation of the antibody and induces the IgE mediated immune response. […] Fifty microliters of these solutions were injected into the skin of the shaved back of Sprague Dawley rats (Taconic, Germantown, N.Y.). As a positive control, the same amount of anti-dinitrophenyl-IgE in the absence of a tetracyclic compound was injected into the skin of the same rat at a different site. After a period of two hours the sensitized rats were challenged with an intravenous injection of 1 mg/ml of dinitrophenyl-human albumin (Sigma ImmunoChemicals, St. Louis, Mo.) in 1% Evan's blue dye. Thirty minute later, the rats were killed and skinned. Percent inhibition was calculated by the reduction of blue dye at the tetracyclic compound treated injection sites versus the positive control sites."}, "[3]": {"assay": "Pharmacokinetic studies in rats", "type": "in vivo", "conditions": "blood, iv, rat, 10 mg/kg I.V.", "description": "The pharmacokinetic (PK) profile of the compounds following systemic I.V. injection was measured. Compound 1 was formulated in PBS and given to a rat at 10 mg/kg. Blood was drawn from the rat at different time points after injection. The concentrations of compound 1 in the blood were measured by HPLC after separation from serum."}, "[4]": {"target": "T1, human FcεRI transfected rat basophil leukemia cell line, SX38 (Homo sapiens, UniProt P01854+P12319)", "T1 construct": "biotinylated recombinant IgE (mouse VH, human Cε, J558L)", "T1 sequence (P12319 26-257)": "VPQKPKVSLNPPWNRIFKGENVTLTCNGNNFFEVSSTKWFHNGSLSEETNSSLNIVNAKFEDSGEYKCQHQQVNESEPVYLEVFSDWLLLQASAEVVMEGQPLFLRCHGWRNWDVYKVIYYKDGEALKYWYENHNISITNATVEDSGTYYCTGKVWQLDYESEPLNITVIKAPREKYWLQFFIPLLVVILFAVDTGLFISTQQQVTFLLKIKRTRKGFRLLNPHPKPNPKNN", "T1 sequence (P01854 whole entry)": "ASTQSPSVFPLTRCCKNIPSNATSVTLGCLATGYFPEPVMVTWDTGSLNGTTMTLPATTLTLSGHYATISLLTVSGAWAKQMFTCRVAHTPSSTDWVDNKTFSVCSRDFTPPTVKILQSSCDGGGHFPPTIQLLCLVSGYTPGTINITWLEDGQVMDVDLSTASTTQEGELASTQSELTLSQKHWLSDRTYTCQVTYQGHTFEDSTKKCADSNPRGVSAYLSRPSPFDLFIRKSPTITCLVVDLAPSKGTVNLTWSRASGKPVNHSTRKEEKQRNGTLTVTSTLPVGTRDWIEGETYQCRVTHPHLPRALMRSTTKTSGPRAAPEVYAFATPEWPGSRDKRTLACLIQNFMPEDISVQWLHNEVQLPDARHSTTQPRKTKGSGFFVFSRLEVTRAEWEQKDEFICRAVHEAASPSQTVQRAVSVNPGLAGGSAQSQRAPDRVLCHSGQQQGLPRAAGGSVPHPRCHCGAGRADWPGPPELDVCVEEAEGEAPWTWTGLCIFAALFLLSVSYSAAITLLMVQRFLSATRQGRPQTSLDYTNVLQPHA", "T1 sequence (Q01362 whole entry partner)": "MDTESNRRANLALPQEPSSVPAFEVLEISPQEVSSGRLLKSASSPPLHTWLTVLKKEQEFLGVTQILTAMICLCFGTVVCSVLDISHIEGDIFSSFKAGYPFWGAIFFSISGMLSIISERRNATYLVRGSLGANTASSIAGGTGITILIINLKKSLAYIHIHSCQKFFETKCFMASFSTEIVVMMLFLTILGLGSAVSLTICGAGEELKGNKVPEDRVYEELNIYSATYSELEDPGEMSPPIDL", "T1 sequence (P30273 19-86 partner)": "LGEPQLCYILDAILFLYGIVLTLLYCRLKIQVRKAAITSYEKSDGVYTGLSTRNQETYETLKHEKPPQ", "assay": "Cell-based IgE-FcεRI binding assay", "description": "About 1×10^5 cells in 50 μl of medium were seeded in the wells of 96-well flat bottom plates. […] Forty microliters of this solution was applied to each well and incubated at room temperature for two hours. The plates were washed three times with PBS, and 40 μl of avidin-horseradish peroxidase, at 1 μg/ml in PBS, was added to each well. After an additional hour of incubation at room temperature, the plate was again washed three times with PBS. The subsequent steps for the measurement of the bound IgE were performed as described in the protein-based IgE-FcεRI binding assay."}, "[5]": {"assay": "Toxicity studies in mice, single I.V. injection", "type": "in vivo", "source_text": "The potential toxic side effects following systemic administration was investigated by administering compound 1 in PBS to mice in single I.V. injection."}, "[6]": {"target": "human IgE / soluble FcεRI α (Fc-FcεRIα fusion protein)", "assay": "Protein-based IgE-FcεRI binding assay (ELISA)", "description": "A protein-based in vitro assay was developed to screen for compounds which block the interaction between IgE and FcεRI. This assay used human IgE and soluble FcεRI α proteins which were prepared as outlined below. As will be described more below, the assay was performed in the format of an Enzyme-linked ImmunoSorbent Assay (ELISA) as follows. ELISA plates were prepared by coating 96-well plates with soluble FcεRI α protein. In the binding step, biotinylated IgE was captured by the FcεRI α in the wells. In the detection step, bound biotinylated IgE was quantitated by the addition of avidin-horseradish peroxidase and a chromogenic substrate. For the screening of antagonists, the IgE and FcεRI binding assay was performed in the presence of various testing compounds. Compounds that inhibit the interaction between IgE and FcεRI α could be readily detected. This assay was then applied to screen tens of thousand of compounds from a diversified chemical library.\nTo provide IgE for the ELISA, a recombinant IgE DNA construct was built by ligating a mouse heavy chain variable region, Vh, gene fragment to a human IgE heavy chain, Cε.\nThe growth medium collected from the above transfected cell culture was concentrated 30-50 times by membrane filtration (Filtron, Northboro, Mass.) and passed through a column of NIP (Genosys Biotechnologies Inc.)-bovine serum albumin (BSA) sepharose. The bound IgE was subsequently eluted from NIP-BSA sepharose using 5 M MgCl2. The eluate was then dialyzed in phosphate buffered saline (PBS). The integrity of the purified IgE was analyzed by SDS-polyacrylamide gel electrophoresis.\nTo provide soluble FcεRI α protein for ELISA, a DNA construct was made to produce soluble FcεRI α as a protein fused to the Fc region of the human immunoglobulin G heavy chain. The protein product of the construct will he termed Fc-FcεRIα.\nThe culture media of the cells producing Fc-FcεRI α fusion protein was collected and passed through a Protein A Sepharose column (Repligen, Cambridge, Mass.). The bound fusion protein was eluted from the Protein A Sepharose in 100 mM sodium citrate buffer (pH 4.0) and immediately neutralized with 0.1 volume of 1M Tris-hydrochloride, pH 8. The integrity of the purified protein was analyzed by SDS-polyacrylamide gel electrophoresis.\nFc-FcεRIα was diluted to 0.4 μg/ml in PBS and was used to coat 96-well plates. One hundred microliters of the FcεRIα fusion protein was added to wells of the 96-well plates, and the plate was incubated at 4° C. for 20 hr and washed twice with PBS/T (PBS containing 0.05% Tween-20). The non-specific binding sites in each of the wells were blocked with 200 μl of blocking buffer (PBS containing 1% of BSA and 1% of goat serum) at 37° C. for 2 hr. The plates were then washed 4 times with PBS/T and stored frozen at -20° C. The plates were thawed at room temperature just before use.\nIgE was biotinylated as follows. Ten microliters of a 40 mg/ml sulfosuccimidyl 6-(biotinamido)-hexanolate (Pierce, Rockford, Ill.) in dimethylsulphoxide was added to 1 ml of 1 mg/ml IgE in sodium bicarbonate buffer, pH 8.0. After a 4 hr incubation at room temperature, the biotinylation was terminated by the addition of 25 μl of 2M Tris hydrochloride, pH 8 and the resulting biotinylated IgE was diayzed against PBS.\nOne hundred microliter of this solution was added to wells of a 96-well plate which had been previously coated with Fc-FcεRIα. […] After an additional one hour incubation at room temperature,the plate was again washed four times with PBS/T. The reaction with Avidin-HRP was developed by the addition of 100 μl of K-blue (Elisa Technologies, Lexington, Ky.) to each well."}}}
{"smiles": "O=C(O)c1c(Cl)c(Cl)c(Cl)c(Cl)c1-c1c2cc(I)c(=O)c(I)c-2oc2c(I)c(O)c(I)cc12", "note": "(single isomer, unassigned) [Compound 1]", "values": [{"measurement": "% Inhibition of PCA", "setting": "IgE/FcεRI [1]; 47 mg/kg I.V.", "value": 2.0, "unit": "%"}, {"measurement": "% Inhibition of PCA", "setting": "IgE/FcεRI [1]; 70 mg/kg I.V.", "value": 64.0, "unit": "%"}, {"measurement": "% Inhibition of PCA", "setting": "IgE/FcεRI [1]; 94 mg/kg I.V.", "value": 104.0, "unit": "%"}, {"measurement": "% Inhibition of PCA", "setting": "IgE/FcεRI [1]; 114 mg/kg I.V.", "value": 102.0, "unit": "%"}, {"measurement": "Percent inhibition of PCA reaction", "setting": "IgE/FcεRI [2]; 0.25 μg/ml", "value": 5, "unit": "%"}, {"measurement": "Percent inhibition of PCA reaction", "setting": "IgE/FcεRI [2]; 0.5 μg/ml", "value": 66, "unit": "%"}, {"measurement": "Percent inhibition of PCA reaction", "setting": "IgE/FcεRI [2]; 1 μg/ml", "value": 100, "unit": "%"}, {"measurement": "IC50, inhibition of anaphylaxis in the rat PCA model", "setting": "IgE/FcεRI [2]; in situ rat PCA model", "value": 0.46, "unit": "µg/mL"}, {"measurement": "concentration at 0 h", "setting": "[3]; 0 minute", "value": 83000, "unit": "ng/mL"}, {"measurement": "concentration at 0.25 h", "setting": "[3]; 15 minute", "value": 2510, "unit": "ng/mL"}, {"measurement": "concentration at 0.5 h", "setting": "[3]; 30 minute", "value": 902, "unit": "ng/mL"}, {"measurement": "concentration at 1 h", "setting": "[3]; 60 minute", "value": 720, "unit": "ng/mL"}, {"measurement": "concentration at 2 h", "setting": "[3]; 120 minute", "value": 625, "unit": "ng/mL"}, {"measurement": "concentration at 4 h", "setting": "[3]; 240 minute", "value": 512, "unit": "ng/mL"}, {"measurement": "inhibition at 10 µg/mL", "setting": "[4]; 10 μg/ml", "value": 46, "unit": "%"}, {"measurement": "IC50", "setting": "[4]; read-out: IC50, inhibition of IgE-FcεRI binding (converted)", "value": 12, "unit": "µM"}, {"measurement": "No. of Death", "setting": "[5]; 400 mg/kg I.V., single injection, 3 mice", "value": 0}, {"measurement": "LD50", "setting": "[5]; mouse, in vivo, iv, mice, single I.V. injection in PBS", "value": "> 400", "unit": "mg/kg"}, {"measurement": "IC50, inhibition of IgE/FcεRI binding", "setting": "[6]", "value": 0.34, "unit": "µg/mL"}, {"measurement": "% Inhibition of IgE/FcεRI binding", "setting": "[6]; 10 μg/ml", "value": 98, "unit": "%"}]}
